The first assay relates to sAPPβ release in SH-SY5Y cells. The assay is described as follows: sAPPβ release assay. It is filed as cell-based. Particulars: Homo sapiens, SH-SY5Y, 17 h, compounds incubated 17 h, MSD detection. The method, then:
Thaw cells and seed at a conc. of around 10000 cells/well in DMEM/F-12 with Glutamax, 10% FCS and 1% non-essential amino acids to a 384-well tissue culture treated plate, 100 μL cell susp/well. […] The cell medium was removed, followed by addition of 30 μL compound diluted in DMEM/F-12 with Glutamax, 10% FCS, 1% non-essential amino acids and 1% PeSt to a final conc. of 1% DMSO. The compounds were incubated with the cells for 17 h (overnight) at 37° C., 5% CO2. Meso Scale Discovery (MSD) plates were used for the detection of sAPPβ release. MSD sAPPβ plates were blocked in 1% BSA in Tris wash buffer (40 μL/well) for 1 h on shake at r.t. and washed 1 time in Tris wash buffer (40 μL/well). 20 μL of medium was transferred to the pre-blocked and washed MSD sAPPβ microplates, and the cell plates were further used in an ATP assay to measure cytotoxicity. The MSD plates were incubated with shaking at r.t. for 2 h and the media discarded. 10 μL detection antibody was added (1 nM) per well followed by incubation with shaking at r.t. for 2 h and then discarded. 40 μL Read Buffer was added per well and the plates were read in a SECTOR Imager.
`CO[C@H]1CC[C@]2(CC1)Cc1ccc(-c3cc(C)cc(C#N)c3)cc1C21N=C(C)C(N)=N1` (stereo partly drawn) [Example 74, 3-[(1r,4r)-4″-Amino-4-methoxy-5″-methyl-3′H-dispiro[cyclohexane-1,2′-indene-1′,2″-imidazol]-6′-yl]-5-methylbenzonitrile]: the IC50 amounted to 2.1 nM.

On to `CO[C@H]1CC[C@]2(CC1)Cc1ccc(C#N)cc1C21N=C(C)C(N)=N1` (stereo partly drawn) [Example 79, (1r,4r)-4″-Amino-4-methoxy-5″-methyl-3′H-dispiro[cyclohexane-1,2′-indene-1′,2″-imidazole]-6′-carbonitrile], for which the concentration for half-maximal inhibition (IC50) stood at 171 nM. `COCc1cccc(-c2ccc3c(c2)C2(N=C(C)C(N)=N2)[C@]2(CC[C@H](OC)CC2)C3)c1` (stereo partly drawn) [Example 80, (1r,4r)-4-Methoxy-6′-[3-(methoxymethyl)phenyl]-5″-methyl-3′H-dispiro[cyclohexane-1,2′-indene-1′,2″-imidazol]-4″-amine]: the IC50 turned out to be 13 nM. Same read-out and setting: next, `COCc1cc(F)cc(-c2ccc3c(c2)C2(N=C(C)C(N)=N2)[C@]2(CC[C@H](OC)CC2)C3)c1` (stereo partly drawn) [Example 81, (1r,4r)-6′-[3-Fluoro-5-(methoxymethyl)phenyl]-4-methoxy-5″-methyl-3′H-dispiro[cyclohexane-1,2′-indene-1′,2″-imidazol]-4″-amine]: 20 nM. On the same count and under the same terms, next, `CO[C@H]1CC[C@]2(CC1)Cc1ccc(-c3cncc(COCC(F)(F)F)c3)cc1C21N=C(C)C(N)=N1` (stereo partly drawn) [Example 82, (1r,4r)-4-Methoxy-5″-methyl-6′-{5-[(2,2,2-trifluoroethoxy)methyl]pyridin-3-yl}-3′H-dispiro[cyclohexane-1,2′-indene-1′,2″-imidazol]-4″-amine]: 36 nM; `CO[C@H]1CC[C@]2(CC1)Cc1ccc(-c3cncc(C(F)(F)F)c3)cc1[C@@]21N=C(C)C(N)=N1` [Example 84, (1r,1′R,4R)-4-Methoxy-5″-methyl-6′-[5-(trifluoromethyl)pyridin-3-yl]-3′H-dispiro[cyclohexane-1,2′-indene-1′,2″-imidazol]-4″-amine]: 0.99 nM. The same measure, in the same setting: in the case of `CO[C@H]1CC[C@]2(CC1)Cc1ccc(-c3cc(C#N)cc(C(F)(F)F)c3)cc1[C@@]21N=C(C)C(N)=N1` [Example 85] it was 0.8 nM; in that of `COc1cc(-c2ccc3c(c2)[C@@]2(N=C(C)C(N)=N2)[C@]2(CC[C@H](OC)CC2)C3)cc(C#N)c1F` [Example 87, 5-[(1r,1′R,4R)-4″-Amino-4-methoxy-5″-methyl-3′H-dispiro[cyclohexane-1,2′-indene-1′,2″-imidazol]-6′-yl]-2-fluoro-3-methoxybenzonitrile], 0.93 nM; in that of `CO[C@H]1CC[C@]2(CC1)Cc1ccc(-c3cc(F)cc(F)c3)cc1[C@@]21N=C(C)C(N)=N1` [Example 88, (1r,1′R,4R)-6′-(3,5-difluorophenyl)-4-methoxy-5″-methyl-3′H-dispiro[cyclohexane-1,2′-indene-1′,2″-imidazol]-4″-amine], 4.8 nM. Regarding `COc1cccc(-c2ccc3c(c2)[C@@]2(N=C(C)C(N)=N2)[C@]2(CC[C@H](OC)CC2)C3)c1F` [Example 89, (1r,1′R,4R)-6′-(2-Fluoro-3-methoxyphenyl)-4-methoxy-5″-methyl-3′H-dispiro[cyclohexane-1,2′-indene-1′,2″-imidazol]-4′″-amine], inhibition was half-maximal at 1.7 nM (IC50). In turn, `CO[C@H]1CC[C@]2(CC1)Cc1ccc(-c3cc(Br)cc(C#N)c3)cc1C21N=C(C)C(N)=N1` (stereo partly drawn) [Example 93, 3-[(1r,4r)-4″-Amino-4-methoxy-5″-methyl-3′H-dispiro[cyclohexane-1,2′-indene-1′,2″-imidazol]-6′-yl]-5-bromobenzonitrile] returned an IC50 of 0.56 nM. Still for that read-out and setting: in the case of `CCc1cc(C#N)cc(-c2ccc3c(c2)C2(N=C(C)C(N)=N2)[C@]2(CC[C@H](OC)CC2)C3)c1` (stereo partly drawn) [Example 95, 3-[(1r,4r)-4″-Amino-4-methoxy-5″-methyl-3′H-dispiro[cyclohexane-1,2′-indene-1′,2″-imidazol]-6′-yl]-5-ethylbenzonitrile] it was 3.6 nM; in that of `CO[C@H]1CC[C@]2(CC1)Cc1ccc(-c3ccc(F)cc3F)cc1[C@@]21N=C(C)C(N)=N1` [Example 103], 14 nM. Still for that read-out and setting: in the case of `CO[C@H]1CC[C@]2(CC1)Cc1ccc(-c3cccc(Cl)c3Cl)cc1[C@@]21N=C(C)C(N)=N1` [Example 104, (1r,1′R,4R)-6′-(2,3-dichlorophenyl)-4-methoxy-5″-methyl-3′H-dispiro[cyclohexane-1,2′-indene-1′,2″-imidazol]-4″-amine] it was 34 nM; in that of `CC1=NC2(N=C1N)c1cc(-c3cc(F)cc(F)c3)ccc1C[C@]21CC[C@@H](OC(F)F)CC1` (stereo partly drawn) [Example 109], 28 nM.

The assay is the same for the next values; noted with them: Homo sapiens, compounds incubated 17 h, MSD detection.
As to `CC#Cc1cncc(-c2ccc3c(c2)[C@@]2(N=C(C)C(N)=N2)[C@]2(CC[C@H](O)CC2)C3)c1` [Example 73, (1r,1′R,4R)-4″-Amino-5″-methyl-6′-[5-(prop-1-yn-1-yl)pyridin-3-yl]-3′H-dispiro[cyclohexane-1,2′-indene-1′,2″-imidazol]-4-ol], it took 1 nM to reach half-maximal inhibition (IC50). For `CC1=NC2(N=C1N)c1cc(-c3cc(Cl)cc(C#N)c3)ccc1CC21CC1` (stereo not drawn) [Example 78, 3-(4″-Amino-5″-methyl-3′H-dispiro[cyclopropane-1,2′-indene-1′,2″-imidazol]-6′-yl)-5-chlorobenzonitrile], half-maximal inhibition (IC50) was put at 56 nM. In turn, `CO[C@H]1CC[C@]2(CC1)Cc1ccc(-c3cncc(C)c3)cc1[C@@]21N=C(C)C(N)=N1` [Example 83, (1r,1′R,4R)-4-Methoxy-5″-methyl-6′-(5-methylpyridin-3-yl)-3′H-dispiro[cyclohexane-1,2′-indene-1′,2″-imidazol]-4″-amine] yielded an IC50 of 2.9 nM. On to `CO[C@H]1CC[C@]2(CC1)Cc1ccc(-c3cc(C#N)cc(C(F)F)c3)cc1[C@@]21N=C(C)C(N)=N1` [Example 86, 3-[(1r,1′R,4R)-4″-Amino-4-methoxy-5-methyl-3′H-dispiro[cyclohexane-1,2′-indene-1′,2″-imidazol]-6′-yl]-5-(difluoromethyl)benzonitrile], for which the IC50 turned out to be 1.1 nM. On the same count and under the same terms, in the case of `CO[C@H]1CC[C@]2(CC1)Cc1ccc(-c3ccccc3)cc1[C@@]21N=C(C)C(N)=N1` [Example 90, (1r,1′R,4R)-4-Methoxy-5″-methyl-6′-phenyl-3′H-dispiro[cyclohexane-1,2′-indene-1′,2″-imidazol]-4″-amine] it was 14 nM; in that of `COc1cc(C#N)cc(-c2ccc3c(c2)C2(N=C(C)C(N)=N2)[C@]2(CC[C@H](OC)CC2)C3)c1` (stereo partly drawn) [Example 91, 3-[(1r,4r)-4″-Amino-4-methoxy-5″-methyl-3′H-dispiro[cyclohexane-1,2′-indene-1′,2″-imidazol]-6′-yl]-5-methoxybenzonitrile], 0.62 nM. Still for that read-out and setting: next, `COCc1cc(C#N)cc(-c2ccc3c(c2)C2(N=C(C)C(N)=N2)[C@]2(CC[C@H](OC)CC2)C3)c1` (stereo partly drawn) [Example 96, 3-[(1r,4r)-4″-Amino-4-methoxy-5″-methyl-3′H-dispiro[cyclohexane-1,2′-indene-1′,2″-imidazol]-6′-yl]-5-(methoxymethyl)benzonitrile]: 3.5 nM; `COc1ccc(F)c(-c2ccc3c(c2)[C@@]2(N=C(C)C(N)=N2)[C@]2(CC[C@H](OC)CC2)C3)c1` [Example 98, (1r,1′R,4R)-6′-(2-Fluoro-5-methoxyphenyl)-4-methoxy-5″-methyl-3′H-dispiro[cyclohexane-1,2′-indene-1′,2″-imidazol]-4′″-amine]: 0.82 nM; `CO[C@H]1CC[C@]2(CC1)Cc1ccc(-c3cc(F)ccc3F)cc1[C@@]21N=C(C)C(N)=N1` [Example 99, (1r,1′R,4R)-6′-(2,5-Difluorophenyl)-4-methoxy-5′-methyl-3′H-dispiro[cyclohexane-1,2′-indene-1′,2″-imidazol]-4″-amine]: 5.7 nM.

Take `CO[C@H]1CC[C@]2(CC1)Cc1ccc(-c3cc(Cl)c(F)c(C#N)c3)cc1[C@@]21N=C(C)C(N)=N1` [Example 100, 5-[(1r,1′R,4R)-4″-amino-4-methoxy-5″-methyl-3′H-dispiro[cyclohexane-1,2′-indene-1′,2″-imidazol]-6′-yl]-3-chloro-2-fluorobenzonitrile]: it took 0.59 nM to reach half-maximal inhibition (IC50). `CO[C@H]1CC[C@]2(CC1)Cc1ccc(-c3cccc(F)c3F)cc1[C@@]21N=C(C)C(N)=N1` [Example 101] came in with an IC50 of 6.3 nM. Regarding `CO[C@H]1CC[C@]2(CC1)Cc1ccc(-c3cc(C#N)ccc3F)cc1[C@@]21N=C(C)C(N)=N1` [Example 102, 3-[(1r,1′R,4R)-4″-Amino-4-methoxy-5″-methyl-3′H-dispiro[cyclohexane-1,2′-indene-1′,2″-imidazol]-6′-yl]-4-fluorobenzonitrile], inhibition was half-maximal at 2.5 nM (IC50). In the case of `CC1=NC2(N=C1N)c1cc(-c3cncc(C(F)(F)F)c3)ccc1C[C@]21CC[C@@H](OC(F)F)CC1` (stereo partly drawn) [Example 107], the concentration for half-maximal inhibition (IC50) turned out to be 7.9 nM.

In the case of `CC1=NC2(N=C1N)c1cc(-c3cc(Cl)cc(C#N)c3)ccc1C[C@]21CC[C@@H](OC(F)F)CC1` (stereo partly drawn) [Example 108, 3-[(1r,4r)-4″-Amino-4-(difluoromethoxy)-5″-methyl-3′H-dispiro[cyclohexane-1,2′-indene-1′,2″-imidazol]-6′-yl]-5-chlorobenzonitrile], inhibition was half-maximal at 1.8 nM (IC50). On to `COc1cc(-c2ccc3c(c2)C2(N=C(C)C(N)=N2)[C@]2(CC[C@H](OC(F)F)CC2)C3)cc(C#N)c1F` (stereo partly drawn) [Example 110, 5-[(1r,4r)-4″-Amino-4-(difluoromethoxy)-5″-methyl-3′H-dispiro[cyclohexane-1,2′-indene-1′,2″-imidazol]-6′-yl]-2-fluoro-3-methoxybenzonitrile], for which the IC50 amounted to 4 nM.

Values taken from patent US10231967B2, “Compounds and their use as BACE inhibitors” (ASTRAZENECA AB, priority 2010, dated 2019).
